Assay results reported in patent US20240360081A1, “SULFONAMIDE OREXIN RECEPTOR AGONISTS AND USES THEREOF” (Jazz Pharmaceuticals Ireland Limited, priority 2021, published 2024).

Target: T1, human recombinant OX2 (hOX2) receptor expressed in CHO cells (Homo sapiens, UniProt O43614)
T1 construct: host or cells: CHO cells (hOX2-CHO)
T1 sequence (O43614 1-444): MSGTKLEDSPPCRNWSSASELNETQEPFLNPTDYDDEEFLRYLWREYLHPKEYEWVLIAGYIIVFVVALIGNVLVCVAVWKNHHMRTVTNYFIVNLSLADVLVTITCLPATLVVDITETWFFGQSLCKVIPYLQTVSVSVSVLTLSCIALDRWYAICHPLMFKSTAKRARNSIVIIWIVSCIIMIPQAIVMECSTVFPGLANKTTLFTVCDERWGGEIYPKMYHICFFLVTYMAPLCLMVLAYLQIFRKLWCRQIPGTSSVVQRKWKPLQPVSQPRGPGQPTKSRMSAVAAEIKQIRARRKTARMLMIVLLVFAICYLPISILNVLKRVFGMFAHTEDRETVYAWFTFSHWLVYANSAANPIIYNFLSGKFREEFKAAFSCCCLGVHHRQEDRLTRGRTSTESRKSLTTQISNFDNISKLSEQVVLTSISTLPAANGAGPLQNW
Experiment: IP-1 accumulation assay (IP-One HTRF) in hOX2-CHO cells
Format: cell-based
Settings: 60 min at 37° C., 11 points CRC, response as % of maximal OX-A response
Summary of the method: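 CHO cells expressing hOX2, 20,000 cells/well in HBSS with 20 mM HEPES pH 7.4, 50 mM LiCl, 0.1% BSA; 11-point compound series, 0.5% DMSO final, 60 min at 37 °C. IP-1 by HTRF (665/615 ratio) after 60 min at room temperature, as % of maximal OX-A response; EC50 by four-parameter logistic fit, mean of ≥2 experiments in duplicate.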

Row | EC50 | SMILES
1 | > 10000 nM | CCc1cccn(C(CNS(C)(=O)=O)CO[C@H]2CC[C@@H](c3ccccc3)CC2)c1=O (single isomer, unassigned; isomer 1) [Example 2a, (R or S) N-[2-(3-ethyl-2-oxo-1,2-dihydropyridin-1-yl)-3-{[(CIS)-4-phenylcyclohexyl]oxy}propyl]methanesulfonamide-Isomer 1]
2 | 100 to 1000 nM | Cc1cc(C(CNS(=O)(=O)CF)CO[C@H]2CC[C@@H](c3cccc(F)c3)CC2)c(=O)n(C)c1 (single isomer, unassigned; isomer 2) [Example 5o, (S or R) N-[2-(1,5-dimethyl-2-oxo-1,2-dihydropyridin-3-yl)-3-{[(CIS)-4-(3-fluorophenyl)cyclohexyl]oxy}propyl]-1-fluoromethanesulfonamide—Isomer 2]
3 | 1000 to 10000 nM | Cn1cccc(C(CNS(C)(=O)=O)CO[C@H]2CC[C@@H](c3ccccc3)CC2)c1=O (stereo partly drawn) [Example 4, N-[2-(1-methyl-2-oxo-1,2-dihydropyridin-3-yl)-3-{[(CIS)-4-phenylcyclohexyl]oxy}propyl]methanesulfonamide]
4 | 100 to 1000 nM | CCc1cccn(C(CNS(C)(=O)=O)CO[C@H]2CC[C@@H](c3ccccc3)CC2)c1=O (single isomer, unassigned; isomer 2) [Example 2b, (S or R) N-[2-(3-ethyl-2-oxo-1,2-dihydropyridin-1-yl)-3-{[(CIS)-4-phenylcyclohexyl]oxy}propyl]methanesulfonamide-Isomer 2]
